Patent publication US8455448B2, “Myostatin isoform” (Myostin Therapeutics Pty Ltd, priority 2004, dated 2013)
“Also recorded” adds a separate entry of the source.

Tests used:
creatine kinase (CK) = assay: Creatine kinase (CK-NAC) assay of blood samples of AH130 tumour rats; assay type: in vivo, rat; conditions: 1 μg/g bodymass s.c. twice daily for 6 d, day 6, FIG. 19
Experimental: The ascites hepatoma 130 (AH130) was obtained as a gift from Dr Vicki Baracos (University of Alberta, Edmonton, Alberta, Canada) and stored in cryovials in liquid nitrogen in a solution of 50% DMSO and 10% BSA. An aliquot was retrieved and thawed and 1 ml was injected i.p. into each of three donor rats and allowed to grow for seven days. The rats were killed by CO2 asphyxiation followed by cervical dislocation. The ascites was harvested and 100 μl was injected i.p. into each of 14 recipient male rats (280±6 g). An equal volume of saline was injected i.p. into seven control rats. Of the 14 rats inoculated with the AH130 tumour, seven were injected s.c. twice daily with roMSV47 at a dose of 1 μg/g body mass diluted in sterile saline to a volume of 1 ml. […] The volume of ascites in the peritoneal cavity was removed with a syringe and the volume recorded. Six muscles in the right hind limb (biceps femoris, gastrocnemius, soleus, plantaris, tibialis anterior and quadriceps femoris) were excised and their mass recorded.
CK-NAC was assayed in a commercial kit (Randox laboratories Ltd, UK). Reaction volumes were scaled down proportionately so that the assays could be performed in 96-well microtitre plates with samples assayed in triplicate (CK-NAC) and read as a change in U/L per min as per manufacturer's instructions.

[1] = system: human skeletal muscle myoblasts; assay: Proliferation assay of human primary myoblasts (methylene blue); assay type: cell-based; conditions: 0-10 μg/ml, 96 h, FIG. 12B
Experimental: Human skeletal muscle myoblasts (Cambrex, Australia) were seeded in 96-well tissue culture plates (Nunc, Roskilde, Denmark) at a cell density of 2000 cells per well in 200 μl of Skeletal Muscle Basal Medium (Cambrex, Australia) supplemented with foetal bovine serum (FBS, 10% v/v, Cambrex, Australia), and incubated overnight at 37° C. with 5% CO2. The medium was replaced with Dulbecco's modified Eagle's medium (DMEM, Invitrogen, California) supplemented with 5% foetal bovine serum (FBS, Invitrogen, California), penicillin (1×10^5 IU/l, Sigma, St Louis, Mo., USA) and streptomycin (100 mg/l, Sigma) buffered with NaHCO3 containing phenol red (7.22 nmol/l) as a pH indicator with 0, 0.1, 1, 5 and 10 μg/ml rhMSV38 or roMSV47 protein in a semi-random arrangement of eight replicates (n=8) for each test medium. Plates were incubated at 37° C. with 5% CO2 for 96 hours, and then the medium was removed. The wells were washed with 200 μl of phosphate buffered saline (PBS, Oxoid, UK) buffer and fixed with 100 μl of 10% formaldehyde, 0.9% NaCl solution for at least one hour. The fixative was then removed and 100 μl of 1% methylene blue stain in 0.01 M borate buffer (pH 8.5) was added to each well and incubated for 30 min at room temperature. Excess stain was removed by four sequential washes in borate buffer. Methylene blue was eluted from the cells by the addition of 100 μl 1:1 (v/v) ethanol/0.1 HCl. The plates were gently shaken and the absorbance was measured at 655 nm using a microplate photometer (VersaMax, Molecular Devices, CA).
Human skeletal muscle myoblasts (Cambrex, Australia) were seeded in 96-well tissue culture plates (Nunc, Roskilde, Denmark) at a cell density of 2000 cells per well in 200 μl of Skeletal Muscle Basal Medium (Cambrex, Australia) supplemented with foetal bovine serum (FBS, 10% v/v, Cambrex, Australia), and incubated overnight at 37° C. with 5% CO2. The medium was replaced with Dulbecco's modified Eagle's medium (DMEM, Invitrogen, California) supplemented with 5% foetal bovine serum (FBS, Invitrogen, California), penicillin (1×10^5 IU/l, Sigma, St Louis, Mo., USA) and streptomycin (100 mg/l, Sigma) buffered with NaHCO3 containing phenol red (7.22 nmol/l) as a pH indicator with no added protein, 1.5 or 3.0 μg/ml recombinant bovine mature myostatin alone and with combination of 0.3, 1, 3, 10 molar ratio of rhMSV38 to myostatin, and the same amounts of rhMSV38 without myostatin in a semi-random arrangement of eight replicates (n=8) for each test medium. Plates were incubated at 37° C. with 5% CO2 for 48 hours, and then the medium was removed. […] The plates were gently shaken and the absorbance was measured at 655 nm using a microplate photometer (VersaMax, Molecular Devices, CA).

roMSV47: 47 amino acid C-terminal mature ovine MSV fragment (SEQ ID NO: 50), recombinant from E. coli (IIFLEVYIQFCSILGEAVFKRQSKSIHFCQNFKIIACLCNTAAFRMK; Ovis aries)
concentrations of creatine kinase (CK) (creatine kinase (CK)): partially restores concentrations of CK; also recorded: not as markedly reduced | proliferation of human myoblasts [1]: able to stimulate human myoblast proliferation
